Measured values published in publication PMC9137581, “Identification of a Novel Class of Anti-Melanogenic Compounds, (Z)-5-(Substituted benzylidene)-3-phenyl-2-thioxothiazolidin-4-one Derivatives, and Their Reactive Oxygen Species Scavenging Activities” (Antioxidants, 2022).
Read-outs that look alike come from different tables or passages of the source.

Legend:
[1] = DPPH radical scavenging activity assay; settings: 1 mM, 30 min in the dark
Protocol: The effects of the (Z)-BPTT analogs 1–13 on DPPH radical scavenging activities were investigated as previously described with slight modification. Briefly, 180 μL of 0.2 mM DPPH in methanol was added to 96-well plates and then 20 μL of one of the (Z)-BPTT analogs 1–13 (10 mM in DMSO) or the positive control (10 mM L-ascorbic acid in distilled water) was added and mixed. The 96-well plates were incubated in the dark for 30 min and then the well optical densities were measured at 517 nm using a VersaMax™ microplate reader (Molecular Devices, Sunnyvale, CA, USA). All of these experiments were performed independently in triplicate. The DPPH radical scavenging activities of the analogs were calculated using the following formula:Scavenging activity (%) = (Ac − As) × 100/Ac where Ac is the optical density of the non-treated control and As is the optical density of the tested material.
The DPPH (2,2-diphenyl-1-picrylhydrazyl) radical scavenging abilities of the (Z)-BPTT analogs were investigated using L-ascorbic acid (vitamin C) as a positive control. The final concentrations of the analogs and of the positive control in the test samples and in the DPPH methanol solution were 1 and 0.18 mM, respectively. The scavenging activities of the analogs were assessed by measuring their optical densities at 517 nm after standing the samples in the dark for 30 min.

[2] = molecular target: T1, mushroom tyrosinase (Agaricus bisporus, UniProt C7FF04); assay: Mushroom tyrosinase inhibition assay (L-tyrosine substrate); type: biochemical; settings: L-tyrosine substrate; means ± SEMs of triplicate determinations
T1 construct: purchased Sigma-Aldrich
T1 sequence (C7FF04 1-392 limits assumed): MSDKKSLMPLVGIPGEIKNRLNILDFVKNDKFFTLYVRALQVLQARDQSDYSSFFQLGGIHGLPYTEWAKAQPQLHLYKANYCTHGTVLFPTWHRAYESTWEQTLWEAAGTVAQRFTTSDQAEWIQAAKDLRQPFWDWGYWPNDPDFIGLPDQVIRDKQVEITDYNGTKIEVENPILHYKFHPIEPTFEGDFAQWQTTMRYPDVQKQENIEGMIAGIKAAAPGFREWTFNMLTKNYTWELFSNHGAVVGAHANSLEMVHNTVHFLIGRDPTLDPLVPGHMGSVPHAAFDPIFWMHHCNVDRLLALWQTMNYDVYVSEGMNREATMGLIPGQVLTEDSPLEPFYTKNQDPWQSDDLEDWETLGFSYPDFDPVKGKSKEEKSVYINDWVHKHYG
Protocol: In order to examine the inhibitory effect of the (Z)-BPTT analogs on tyrosinase activity, commercially available mushroom tyrosinase (Sigma-Aldrich, St. Louis, MO, USA) was used. The mushroom tyrosinase-inhibitory activities of the analogs were determined as described previously with modification. Briefly, 20 µL (20 units) of an aqueous mushroom tyrosinase solution was added to each well of a 96-well microplate containing 170 µL of a substrate mixture consisting of 345 μM of L-tyrosine solution, 17.2 mM phosphate buffer (pH 6.5), and 10 µL of a (Z)-BPTT analog solution at different concentrations or 10 µL of a kojic acid solution (2, 10, or 50 μM). After incubating the assay mixtures for 30 min at 37 °C, the remaining tyrosinase activities were calculated from the amounts of dopachrome that were formed as determined by measuring their absorbance at 492 nm using a microplate reader (VersaMax™, Molecular Devices, Sunnyvale, CA, USA). The curves of the IC50 values that were derived from the X-axis of the inhibitor concentration versus the amount of product that was produced were determined by aligning the dose–response curve with the Y-axis. Inhibition experiments were performed in triplicate using three to six different concentrations of the (Z)-BPTT analogs or kojic acid. Log–linear curves and their equations were determined by using inhibition percentages at three to six analog concentrations. The individual IC50 values were determined by reading the concentrations on the Y-axis at 50% inhibition. The results are the means of three independent experiments.
The tyrosinase-inhibitory activities were screened against mushroom tyrosinase using L-tyrosine as a substrate, as previously described. Kojic acid, a representative tyrosinase inhibitor, was used as a positive control. […]. All 13 of the (Z)-BPTT analogs inhibited tyrosinase activity in a concentration-dependent manner. The IC50 values are shown in Table 2, along with the analog substitutions.

[3] = ABTS free radical scavenging activity assay; settings: 100 µM, 2 min in the dark
Protocol: ABTS free radical scavenging activity was used to evaluate the antioxidant activities of analogs 1–13, as previously described. […] This ABTS free radical solution was then diluted with absolute methanol to an absorbance of 0.70 ± 0.02 at 734 nm. Aliquots (10 µL) of the test samples (10% DMSO + 90% EtOH) were added at a final concentration of 100 µM to 90 µL of the diluted ABTS free radical solution and incubated for 2 min in the dark at room temperature. Absorbances were then measured at 734 nm using a VersaMax™ microplate reader (Molecular Devices, Sunnyvale, CA, USA). The ABTS free radical scavenging activities of the test analogs were calculated using the following formula:Scavenging activity (%) = (Ac − As) × 100/Ac where Ac is the optical density of the non-treated control and As is the optical density of the tested material.
The effects of analogs 1–13 on ABTS (2,2′-azino-bis(3-ethylbenzothiazoline-6-sulfonic acid)) free radical scavenging activity were investigated using trolox as a positive reference control. The concentrations of the analogs and trolox in the test samples were 100 µM. The free radical scavenging activities were assessed by measuring the optical densities at 734 nm after standing in the dark for 2 min. […] Analogs 7–10, with no hydroxyl groups on the β-phenyl ring, had weak ABTS and DPPH radical scavenging activities.

[4] = system: B16F10 cells; assay: Melanin content assay in α-MSH plus IBMX-stimulated cells; type: cell-based, murine; settings: 48 h, B16F10 cells
Protocol: Briefly, B16F10 cells were seeded at a density of 1 × 10^5 cells per well in 6-well plates and allowed to adhere to the well bases under the same conditions that were used for cell culturing. […] In order to determine the melanin contents, the B16F10 cells that were exposed to α-MSH and IBMX for 48 h were rinsed with PBS twice and incubated in 200 µL of 1 N NaOH solution containing 10% dimethyl sulfoxide (DMSO) for 1 h at 60 °C. The cell lysates were transferred to a 96-well plate and the absorbances at 405 nm were measured using a microplate reader (VersaMax™, Molecular Devices, Sunnyvale, CA, USA). These experiments were performed individually in triplicate. B16F10 cells were seeded in 6-well culture plates and pretreated with analogs 1, 3, and 6 at concentrations of 0, 5, 10, or 20 µM and with analog 2 at 0, 2.5, 5, or 10 µM for 1 h. α-Melanocyte-stimulating hormone (α-MSH; 1 µM) and 3-isobutyl-1-methylxanthine (IBMX; 200 µM) were added sequentially in order to enhance melanin production. After incubation for 48 h at 37 °C, the melanin contents were assessed by measuring the well optical densities at 405 nm using a microplate reader. Kojic acid (10 or 20 µM) was used as a positive control.

[5] = molecular target: mushroom tyrosinase; settings: read-out: IC50 against mushroom tyrosinase, cited from earlier work
[6] = system: B16F10 murine melanoma cells; design: method as in PMID 34356311; settings: ref [32]; cited from earlier work
[7] = system: UVB-irradiated HRM2 hairless mice; design: method as in PMID 30554432; settings: ref [31]; cited from earlier work

O=C1O[C@H]([C@@H](O)CO)C(O)=C1O [L-ascorbic acid, reference compound]
DPPH radical scavenging activity [1]: 96.9%

COc1ccc(/C=C2\SC(=S)N(c3ccccc3)C2=O)cc1OC [Analog 8, (Z)-5-(3,4-Dimethoxybenzylidene)-3-phenyl-2-thioxothiazolidin-4-one]
IC50 [2]: 94.3 ± 7.7 µM

O=C1/C(=C/c2cc(Br)c(O)c(Br)c2)SC(=S)N1c1ccccc1 [Analog 13, (Z)-5-(3,5-Dibromo-4-hydroxybenzylidene)-3-phenyl-2-thioxothiazolidin-4-one]
ABTS free radical scavenging activity (in words) [3]: slightly decreased
IC50 [2]: 78.8 ± 8.63 µM

COc1cc(/C=C2\SC(=S)N(c3ccccc3)C2=O)ccc1O [Analog 4, (Z)-5-(4-Hydroxy-3-methoxybenzylidene)-3-phenyl-2-thioxothiazolidin-4-one]
DPPH radical scavenging activity [1]: 78.7%
ABTS free radical scavenging activity [3]: 61.5%
IC50 [2]: 80 ± 3.3 µM

O=C1/C(=C/c2ccc(O)c(Br)c2)SC(=S)N1c1ccccc1 [Analog 12, (Z)-5-(3-Bromo-4-hydroxybenzylidene)-3-phenyl-2-thioxothiazolidin-4-one]
ABTS free radical scavenging activity (in words) [3]: did not influence
IC50 [2]: 65.5 ± 9.4 µM

COc1ccc(/C=C2\SC(=S)N(c3ccccc3)C2=O)cc1 [Analog 7, (Z)-5-(4-Methoxybenzylidene)-3-phenyl-2-thioxothiazolidin-4-one]
IC50 [2]: > 200 µM

O=c1cc(CO)occ1O [kojic acid, reference compound]
reduction of α-MSH plus IBMX-induced increase in melanin content ([4]; 10 µM): 21.8%
reduction of α-MSH plus IBMX-induced increase in melanin content ([4]; 20 µM): 22.9%

Cc1c(C)c2c(c(C)c1O)CCC(C)(C(=O)O)O2 (stereo not drawn) [trolox, reference compound]
ABTS free radical scavenging activity [3]: 99.8%

CCOc1cc(/C=C2\SC(=S)N(c3ccccc3)C2=O)ccc1O [Analog 5, (Z)-5-(3-Ethoxy-4-hydroxybenzylidene)-3-phenyl-2-thioxothiazolidin-4-one]
DPPH radical scavenging activity [1]: 77.5%
ABTS free radical scavenging activity [3]: 51.2%
IC50 [2]: > 200 µM

COc1cc(/C=C2\SC(=S)N(c3ccccc3)C2=O)cc(OC)c1O [Analog 11, (Z)-5-(4-Hydroxy-3,5-dimethoxybenzylidene)-3-phenyl-2-thioxothiazolidin-4-one]
ABTS free radical scavenging activity [3]: 57.2%
IC50 [2]: > 200 µM

COc1ccc(/C=C2\SC(=S)N(c3ccccc3)C2=O)c(OC)c1 [Analog 9, (Z)-5-(2,4-Dimethoxybenzylidene)-3-phenyl-2-thioxothiazolidin-4-one]
IC50 [2]: 22.1 ± 4.23 µM

COc1cc(/C=C2\SC(=S)N(c3ccccc3)C2=O)cc(OC)c1OC [Analog 10, (Z)-3-Phenyl-2-thioxo-5-(3,4,5-trimethoxybenzylidene)thiazolidin-4-one]
IC50 [2]: > 200 µM

O=c1/c(=C/c2ccc(O)cc2O)sc2nc3ccccc3n12 [Compound I, (Z)-2-(2,4-dihydroxybenzylidene)benzo[4,5]imidazo[2,1-b]thiazol-3(2H)-one]
IC50 ([5]; ref [32]): 5 ± 0.38 µM
effects in cells [6]: anti-tyrosinase and anti-melanogenic effects

COc1ccc(/C=C2\SC(=S)NC2=O)cc1O [5-HMT, (Z)-5-(3-hydroxy-4-methoxybenzylidene)-2-thioxothiazolidin-4-one]
IC50 ([5]; ref [31]): 18.1 ± 1 µM
skin effect in vivo [7]: skin-lighting effect
